Source: patent US20220251096A1, “7,8-DIHYDRO-4H-PYRAZOLO[4,3-c]AZEPINE-6-ONE COMPOUNDS” (Eli Lilly and Company, priority 2019, published 2022)

Assays:
CREBBP = CREBBP (Homo sapiens, UniProt Q92793); assay: NanoBRET assay, CREBBP bromodomain; assay type: cell-based; design: NanoLuc-CREBBP-BD (Promega, 0.0002 μg); host or cells: HEK293; settings: NanoBRET in HEK293 cells, read after 4 hours incubation; mean ± Standard Deviation
Method: HEK293 cells are seeded at 10×10^6 cells/16 mL in DMEM+10% FBS in a T-75 flask and left to attach for 4-6 hours. Transfection reagents are diluted in Opti-MEM media (no phenol red, no FBS) and 8% Fugene HD containing expression plasmids at a final concentration of the following: 1: Histone H3.3 HaloTag DNA (Promega, 0.02 μg)+NanoLuc-CREBBP-BD (Promega, 0.0002 μg); 2: Histone H3.3 HaloTag DNA (Promega, 0.02 μg)+NanoLuc-EP300-BD (Promega, 0.0002 μg); 3: Histone H4 HaloTag DNA (0.02 μg)+NanLuc-BRD4 Full Length (Promega, 0.0002 μg). The DNA/Fugene mixtures are left at RT for 10 minutes. Transfection mix (800 μL) is added per flask and immediately swirled to cover the cells. The plates are returned to the incubator for overnight transfection. The next day, HaloTag NanoBRET 618 ligand (20 μL/vial of 0.1 mM) is thawed at RT. […]
Compound is serially diluted and added to 96-well plates (2 10 mM, 3-fold dilutions, 100% DMSO). […] CREBBP/EP300 plates are read after 4 hours incubation and the BRD4 plates are read after overnight incubation. To develop plates for reading, allow all reagents to reach RT before use. […] The plate is shaken for 1 minute to mix and within 10 minutes, read on Envision plate reader with the following settings: Mirror: Luminescence; Emission filter: E600LP; 2nd emission filter: D460/50; Measurement height (mm): 6.5; Measurement time (s): 0.2 second.

MDA-MIB-453 = assay: Cell growth inhibition assay, MDA-MIB-453; assay type: cell-based; settings: 168 h; MDA-MIB-453, 7 days
Method: (§1) Tumor cell lines are plated onto 96-well, black wall poly-D-lysine plates (Corning #354640), and incubated at 37° C., 5% CO2 for 18-24 hours. Compound was added at 1:3 dilutions in DMSO and cells were incubated at 37° C., 5% CO2 for 7 days. For adherent cell lines, cells were fixed and stained with propidium iodide and scanned on Acumen (channel 3 setting). For suspension cell lines, cell growth was monitored using Cell Titer-Glo reagent.

EOL-1 = assay: Cell growth inhibition assay, EOL-1; assay type: cell-based; settings: Homo sapiens, EOL1, 168 h; EOL-1, 7 days
Method: as §1

THP-1 = assay: Cell growth inhibition assay, THP-1; assay type: cell-based; settings: Homo sapiens, 168 h; THP-1, 7 days
Method: as §1

BRD4 (BD1) = molecular target: T1, BRD4 (BD1) (Homo sapiens, UniProt O60885); assay: BromoKdELECT platform assay, BRD4 (BD1); assay type: binding; settings: 11 points dose-response, mean from a duplicate experiment
T1 construct: BRD4 (Bromodomain 1 (BD1) and Bromodomain 2 (BD2)); purchased DiscoverX (BromoKdELECT service)
Description: The purpose of this assay is to evaluate the in vitro target engagement and selectivity (https://www.discoverx.com/services/drug-discovery-development-services/epigenetic-profiling/bromoscan-epigenetic-profiling/bromokdelect). Assay measurement is based on the amount of bromodomain captured in test and control samples by using quantitative PCR technology that detects the DNA label associated to bromodomain. Compounds that bind the bromodomain active site prevents its binding to the immobilized ligand and will reduce the amount of bromodomain captured on the solid support. […] Thus, compound activity is monitored by measuring the amount of bromodomain captured in test versus control samples by using qPCR. Binding affinity for test compound-bromodomain interactions are calculated by measuring the amount of bromodomain captured on the solid support as a function of the test compound concentration.
Binding affinity (Kd) of the compounds of Examples 1 and 2 towards CREBBP, EP300 and BRD4 (Bromodomain 1 (BD1) and Bromodomain 2 (BD2)) are determined in an 11 points dose-response study (See Table 5). Data is represented as a mean from a duplicate experiment.

Chain of CREBBP (Q92793 1085-1192 limits assumed): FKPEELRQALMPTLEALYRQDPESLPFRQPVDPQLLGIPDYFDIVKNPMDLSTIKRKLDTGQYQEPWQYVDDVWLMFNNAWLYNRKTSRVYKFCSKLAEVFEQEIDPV

IC50 (CREBBP): 18.6 ± 4.09 nM
IC50 (THP-1): 29 nM
Kd (BRD4 (BD1)): 2650 nM
Compound: CCNC(=O)c1ccc(-c2cc3cccc(-c4nn(C)c5c4CN(C)C(=O)CC5)c3cn2)cn1 [Example 2, 5-[8-(1,5-Dimethyl-6-oxo-7,8-dihydro-4H-pyrazolo[4,3-c]azepin-3-yl)-3-isoquinolyl]-N-ethyl-pyridine-2-carboxamide]
IC50 (MDA-MIB-453): 35 nM
IC50 (EOL-1): 1 nM
